In patent publication EP2951180B1, “2,6,7,8 SUBSTITUTED PURINES AS HDM2 INHIBITORS” (Merck Sharp & Dohme Corp., priority 2013, dated 2014):
pIC50: −log10 of the molar value. Read-outs that look alike come from different tables or passages of the source.

Biological target: T1, HDM2 (Homo sapiens, UniProt Q00987)
T1 construct: Thioredoxin (N); made in house; host or cells: E. coli strain BL21(DE3)Rosetta
Assay: HDM2 FRET assay (inhibition of binding of FITC labeled p53-pocket peptide to HDM2)
Details: read-out: FRET IC50
In short: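 Displacement of FITC-p53 peptide (3 nM) from His-tagged HDM2 (0.5 nM) is measured by Tb-to-fluorescein FRET in PBS, 0.01% BSA, 0.01% Tween-20. IC50 values derive from 10-point curves.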

T1 sequence (Q00987 17-125): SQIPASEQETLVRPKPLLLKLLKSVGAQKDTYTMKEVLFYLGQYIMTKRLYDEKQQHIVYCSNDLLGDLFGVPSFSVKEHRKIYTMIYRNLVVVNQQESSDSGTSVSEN

SMILES | pIC50 (Table 21) | other results
C[C@H]1CC[C@H](Cn2c(C3(c4ccccc4)CCC3)nc3nc(-c4n[nH]c(=O)o4)nc(-c4cc(Cl)c[n+]([O-])c4)c32)CC1 [Example 20.13, 5-[6-(5-chloro-1-oxidopyridin-3-yl)-7-[(trans-4-methylcyclohexyl)methyl]-8-(1-phenylcyclobutyl)-7H-purin-2-yl]-1,3,4-oxadiazol-2(3H)-one] |  | pIC50 (Table 20): 7.64
COc1ncc(Cl)cc1-c1nc(-c2noc(=O)[nH]2)nc2nc(C3(c4ccccc4)CCC3)n(C[C@H]3CC[C@H](C)CC3)c12 [Example 20.14, 3-[6-(5-chloro-2-methoxypyridin-3-yl)-7-[(trans-4-methylcyclohexyl)methyl]-8-(1-phenylcyclobutyl)-7H-purin-2-yl]-1,2,4-oxadiazol-5(4H)-one] |  | pIC50 (Table 20): 8.21
C[C@@H](Nc1nc(C(=O)O)nc2nc(C3=C(c4ccccc4)CCCC3)n(Cc3ccc(C(F)(F)F)cc3)c12)C1CCC1 [Example 21.3, 6-{[(1R)-1-cyclobutylethyl]amino}-8-(2-phenylcyclohex-1-en-1-yl)-7-[4-(trifluoromethyl)benzyl]-7H-purine-2-carboxylic acid] | 8.24 | 
C[C@@H](Nc1nc(C(=O)O)nc2nc(C3=C(c4ccccc4)CCC3)n(Cc3ccc(C(F)(F)F)cc3)c12)C1CCC1 [Example 21.4, 6-{[(1R)-1-cyclobutylethyl]amino}-8-(2-phenylcyclopent-1-en-1-yl)-7-[4-(trifluoromethyl)benzyl]-7H-purine-2-carboxylic acid] | 8.16 | 
Cc1nc2nc(C(=O)O)nc(N[C@H](C)C3CCC3)c2n1C[C@H]1CC[C@H](C)CC1 [Example 21.9, 6-{[(1R)-1-cyclobutylethyl]amino}-8-methyl-7-[(trans-4-methylcyclohexyl)methyl]-7H-purine-2-carboxylic acid] | 7.00 | 
C[C@@H](Nc1nc(C(=O)O)nc2nc(C3CCCC(=O)C3c3ccccc3)n(Cc3ccc(C(F)(F)F)cc3)c12)C1CCC1 (stereo partly drawn) [Example 21.11, 6-{[(1R)-1-cyclobutylethyl]amino}-8-(3-oxo-2-phenylcyclohexyl)-7-[4-(trifluoromethyl)benzyl]-7H-purine-2-carboxylic acid] | 8.06 | 
C[C@@H](Nc1nc(C(=O)O)nc2nc(C3CCCCC3c3ccccc3)n(Cc3ccc(C(F)(F)F)cc3)c12)C1CCC1 (stereo partly drawn) [Example 21.12, 6-{[(1R)-1-cyclobutylethyl]amino}-8-(2-phenylcyclohexyl)-7-[4-(trifluoromethyl)benzyl]-7H-purine-2-carboxylic acid] | 8.34 | 
C=C(c1ccccc1)c1nc2nc(-c3noc(=O)[nH]3)nc(N[C@H](C)C3CCC3)c2n1C[C@H]1CC[C@H](C)CC1 [Example 21.13, 3-[6-{[(1R)-1-cyclobutylethyl]amino}-7-[(trans-4-methylcyclohexyl)methyl]-8-(1-phenylethenyl)-7H-purin-2-yl]-1,2,4-oxadiazol-5(4H)-one] | 8.72 | 
C[C@@H](Nc1nc(-c2noc(=O)[nH]2)nc2nc(C3=C(c4ccccc4)CCCC3)n(C[C@H]3CC[C@H](C)CC3)c12)C1CCC1 [Example 21.16, 3-[6-{[(1R)-1-cyclobutylethyl]amino}-7-[(trans-4-methylcyclohexyl)methyl]-8-(2-phenylcyclohex-1-en-1-yl)-7H-purin-2-yl]-1,2,4-oxadiazol-5(4H)-one] | 7.91 | 
C[C@@H](Nc1nc(C(=O)O)nc2nc(C3CCCCC3c3ccccc3)n(C[C@H]3CC[C@H](C)CC3)c12)C1CCC1 (stereo partly drawn) [Example 21.17, 6-{[(1R)-1-cyclobutylethyl]amino}-7-[(trans-4-methylcyclohexyl)methyl]-8-(2-phenylcyclohexyl)-7H-purine-2-carboxylic acid] | 8.37 | 
C[C@@H](Nc1nc(C(=O)O)nc2nc(C3=C(c4ccccc4)CCCC3)n(C[C@H]3CC[C@H](C)CC3)c12)C1CCC1 [Example 21.18, 6-{[(1R)-1-cyclobutylethyl]amino}-7-[(trans-4-methylcyclohexyl)methyl]-8-(2-phenylcyclohex-1-en-1-yl)-7H-purine-2-carboxylic acid] | 8.19 | 
C=C(c1nc2nc(-c3noc(=O)[nH]3)nc(N[C@H](C)C3CCC3)c2n1C[C@H]1CC[C@H](C)CC1)C1CCCCC1 [Example 21.19, 3-(6-{[(1R)-1-cyclobutylethyl]amino}-8-(1-cyclohexylethenyl)-7-[(trans-4-methylcyclohexyl)methyl]-7H-purin-2-yl)-1,2,4-oxadiazol-5(4H)-one] | 9.03 | 
C[C@@H](Nc1nc(-c2noc(=O)[nH]2)nc2nc(/C=C/c3ccccc3)n(C[C@H]3CC[C@H](C)CC3)c12)C1CCC1 [Example 21.20, 3-(6-{[(1R)-1-cyclobutylethyl]amino}-7-[(trans-4-methylcyclohexyl)methyl]-8-[(E)-2-phenylethenyl]-7H-purin-2-yl)-1,2,4-oxadiazol-5(4H)-one] | 8.72 | 
CC(c1nc2nc(-c3noc(=O)[nH]3)nc(N[C@H](C)C3CCC3)c2n1C[C@H]1CC[C@H](C)CC1)C1CCOCC1 (stereo partly drawn) [Example 21.21, 3-(6-{[(1R)-1-cyclobutylethyl]amino}-7-[(trans-4-methylcyclohexyl)methyl]-8-[1-(tetrahydro-2H-pyran-4-yl)ethyl]-7H-purin-2-yl)-1,2,4-oxadiazol-5(4H)-one] | 8.14 | 
C[C@@H](Nc1nc(-c2noc(=O)[nH]2)nc2nc(CCc3ccccc3)n(C[C@H]3CC[C@H](C)CC3)c12)C1CCC1 [Example 21.24, 3-[6-{[(1R)-1-cyclobutylethyl]amino}-7-[(trans-4-methylcyclohexyl)methyl]-8-(2-phenylethyl)-7H-purin-2-yl]-1,2,4-oxadiazol-5(4H)-one] | 8.10 | 
C[C@@H](Nc1nc(-c2noc(=O)[nH]2)nc2nc(C3CC3)n(C[C@H]3CC[C@H](C)CC3)c12)C1CCC1 [Example 21.27, 3-(6-{[(1R)-1-cyclobutylethyl]amino}-8-cyclopropyl-7-[(trans-4-methylcyclohexyl)methyl]-7H-purin-2-yl)-1,2,4-oxadiazol-5(4H)-one] | 7.74 | 
C=C(c1ccc(F)cc1)c1nc2nc(-c3noc(=O)[nH]3)nc(N[C@H](C)C3CCC3)c2n1C[C@H]1CC[C@H](C)CC1 [Example 21.30, 3-(6-{[(1R)-1-cyclobutylethyl]amino}-8-[1-(4-fluorophenyl)ethenyl]-7-[(trans-4-methylcyclohexyl)methyl]-7H-purin-2-yl)-1,2,4-oxadiazol-5(4H)-one] | 8.74 | 
CC(c1ccc(F)cc1)c1nc2nc(-c3noc(=O)[nH]3)nc(N[C@H](C)C3CCC3)c2n1C[C@H]1CC[C@H](C)CC1 (stereo partly drawn) [Example 21.31, 3-(6-{[(1R)-1-cyclobutylethyl]amino}-8-[1-(4-fluorophenyl)ethyl]-7-[(trans-4-methylcyclohexyl)methyl]-7H-purin-2-yl)-1,2,4-oxadiazol-5(4H)-one] | 7.98 | 
C[C@@H](Nc1nc(-c2noc(=O)[nH]2)nc2nc(C3=CCCC3)n(C[C@H]3CC[C@H](C)CC3)c12)C1CCC1 [Example 21.32, 3-(6-{[(1R)-1-cyclobutylethyl]amino}-8-cyclopent-1-en-1-yl-7-[(trans-4-methylcyclohexyl)methyl]-7H-purin-2-yl)-1,2,4-oxadiazol-5(4H)-one] | 8.31 | 
C[C@@H](Nc1nc(-c2noc(=O)[nH]2)nc2nc(C3CCCC3)n(C[C@H]3CC[C@H](C)CC3)c12)C1CCC1 [Example 21.34, 3-(6-{[(1R)-1-cyclobutylethyl]amino}-8-cyclopentyl-7-[(trans-4-methylcyclohexyl)methyl]-7H-purin-2-yl)-1,2,4-oxadiazol-5(4H)-one] | 8.11 | 
C[C@@H](Nc1nc(-c2noc(=O)[nH]2)nc2nc(C3=CCCCC3)n(C[C@H]3CC[C@H](C)CC3)c12)C1CCC1 [Example 21.37, 3-(6-{[(1R)-1-cyclobutylethyl]amino}-8-cyclohex-1-en-1-yl-7-[(trans-4-methylcyclohexyl)methyl]-7H-purin-2-yl)-1,2,4-oxadiazol-5(4H)-one] | 8.42 | 
C[C@@H](Nc1nc(C(=O)O)nc2nc(C3CCCCC3)n(C[C@H]3CC[C@H](C)CC3)c12)C1CCC1 [Example 21.38, 6-{[(1R)-1-cyclobutylethyl]amino}-8-cyclohexyl-7-[(trans-4-methylcyclohexyl)methyl]-7H-purine-2-carboxylic acid] | 8.57 | 
C[C@@H](Nc1nc(-c2noc(=O)[nH]2)nc2nc(C3CCCCC3)n(C[C@H]3CC[C@H](C)CC3)c12)C1CCC1 [Example 21.39, 3-(6-{[(1R)-1-cyclobutylethyl]amino}-8-cyclohexyl-7-[(trans-4-methylcyclohexyl)methyl]-7H-purin-2-yl)-1,2,4-oxadiazol-5(4H)-one] | 8.10 | 
C[C@@H](Nc1nc(-c2n[nH]c(=O)o2)nc2nc(C3CCCCC3)n(C[C@H]3CC[C@H](C)CC3)c12)C1CCC1 [Example 21.40, 5-(6-{[(1R)-1-cyclobutylethyl]amino}-8-cyclohexyl-7-[(trans-4-methylcyclohexyl)methyl]-7H-purin-2-yl)-1,3,4-oxadiazol-2(3H)-one] | 8.37 | 
C[C@@H](Nc1nc(-c2noc(=O)[nH]2)nc2nc(C(=O)C(C)(C)C)n(C[C@H]3CC[C@H](C)CC3)c12)C1CCC1 [Example 22.1, 3-(6-{[(1R)-1-cyclobutylethyl]amino}-8-(2,2-dimethylpropanoyl)-7-[(trans-4-methylcyclohexyl)methyl]-7H-purin-2-yl)-1,2,4-oxadiazol-5(4H)-one] |  | pIC50 (Table 22): 8.33
C[C@@H](Nc1nc(-c2noc(=O)[nH]2)nc2nc(C(C)(O)C(C)(C)C)n(C[C@H]3CC[C@H](C)CC3)c12)C1CCC1 (stereo partly drawn) [Example 22.2, 3-(6-{[(1R)-1-cyclobutylethyl]amino}-8-(1-hydroxy-1,2,2-trimethylpropyl)-7-[(trans-4-methylcyclohexyl)methyl]-7H-purin-2-yl)-1,2,4-oxadiazol-5(4H)-one] |  | pIC50 (Table 22): 7.98
